Test results reported in patent US8802597B2, “Herbicidal pyrimidines” (E I du Pont de Nemours and Company, priority 2003, dated 2014).

How the values were obtained:
Format in all cases: in vivo
rice (Oryza sativa) = experiment: Test B flooded paddy test; conditions: Flood, scale 0 to 100
How it was run: (§1)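 Visual injury scoring (0 = no effect, 100 = complete control) versus controls made 13 to 15 days after treatment in the greenhouse. Test species were grown in flooded paddy to the 2-leaf stage: rice, barnyardgrass, umbrella sedge, duck salad.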

[1] = system: umbrella sedge (Cyperus difformis); experiment: Test B flooded paddy test; conditions: Flood, scale 0 to 100
How it was run: as §1

[2] = system: barnyardgrass (Echinochloa crus-galli); experiment: Test B flooded paddy test; conditions: Flood
How it was run: as §1

[3] = system: duck salad (Heteranthera limosa); experiment: Test B flooded paddy test; conditions: Flood, scale 0 to 100
How it was run: as §1

[4] = system: blackgrass (Alopecurus myosuroides); experiment: Test B postemergence; conditions: for Blackgrass plant response rating: scale 0 to 100 (0 no effect, 100 complete control)
How it was run: (§2)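 Following sowing, compounds in a surfactant-bearing non-phytotoxic solvent were applied preemergence; emerged plants 2 to 18 cm high got postemergence treatment concurrently. Evaluation: 13 to 15 days later, greenhouse, 0–100 visual scale.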

wild oat (Avena fatua) = experiment: Test B postemergence; conditions: for Oat, Wild plant response rating: scale 0 to 100 (0 no effect, 100 complete control)
How it was run: as §2

corn (Zea mays) = experiment: Test B pre/postemergence
How it was run: as §2

[5] = system: giant foxtail (Setaria faberii); experiment: Test B pre/postemergence
How it was run: as §2

[6] = system: cocklebur (Xanthium strumarium); experiment: Test B pre/postemergence
How it was run: as §2

[7] = system: Surinam grass (Brachiaria decumbens); experiment: Test B pre/postemergence
How it was run: as §2

[8] = system: pigweed (Amaranthus retroflexus); experiment: Test B pre/postemergence
How it was run: as §2

[9] = system: crabgrass (Digitaria sanguinalis); experiment: Test B pre/postemergence
How it was run: as §2

[10] = system: velvetleaf (Abutilon theophrasti); experiment: Test B pre/postemergence
How it was run: as §2

[11] = system: barnyardgrass (Echinochloa crus-galli); experiment: Test B pre/postemergence
How it was run: as §2

[12] = system: morningglory (Ipomoea coccinea); experiment: Test B pre/postemergence
How it was run: as §2

[13] = system: wheat (Triticum aestivum); experiment: Test B pre/postemergence
How it was run: as §2

[14] = system: lambsquarters (Chenopodium album); experiment: Test B pre/postemergence
How it was run: as §2

[15] = Postemergence, 62 g ai/ha, scale 0 to 100 (0 no effect, 100 complete control)
[16] = Postemergence, 125 g ai/ha, scale 0 to 100 (0 no effect, 100 complete control)
[17] = Preemergence, 62 g ai/ha, scale 0 to 100, 0 no effect, 100 complete control
[18] = Preemergence, 125 g ai/ha, scale 0 to 100 (0 no effect, 100 complete control)
[19] = Postemergence, 500 g ai/ha, scale 0 to 100
[20] = Preemergence, 500 g ai/ha, scale 0 to 100 (0 no effect, 100 complete control)

SMILES: Nc1nc(-c2ccc(Cl)cc2)nc(C(=O)O)c1Br [Compound 88]
- Plant response rating, Rice (rice (Oryza sativa); 125 g ai/ha): 0
- Plant response rating, Rice (rice (Oryza sativa); 500 g ai/ha): 0
- Plant response rating, Sedge, Umbrella ([1]; 125 g ai/ha): 60
- Plant response rating, Sedge, Umbrella ([1]; 500 g ai/ha): 90
- Plant response rating, Barnyardgrass ([2]; 125 g ai/ha, scale 0 to 100): 0
- Plant response rating, Barnyardgrass ([2]; 500 g ai/ha, scale 0 to 100): 0
- Plant response rating, Ducksalad ([3]; 125 g ai/ha): 90
- Plant response rating, Ducksalad ([3]; 500 g ai/ha): 90
- Blackgrass plant response rating ([4]; 62 g ai/ha): 40
- Blackgrass plant response rating ([4]; 125 g ai/ha): 60
- Oat, Wild plant response rating (wild oat (Avena fatua); 62 g ai/ha): 40
- Oat, Wild plant response rating (wild oat (Avena fatua); 125 g ai/ha): 50
- Corn plant response rating (corn (Zea mays); [15]): 70
- Corn plant response rating (corn (Zea mays); [16]): 80
- Plant response rating, Corn (corn (Zea mays); [17]): 0
- Plant response rating, Corn (corn (Zea mays); [18]): 10
- Foxtail, Giant plant response rating [5, 15]: 60
- Foxtail, Giant plant response rating [5, 16]: 70
- Plant response rating, Foxtail, Giant [5, 17]: 10
- Plant response rating, Foxtail, Giant [5, 18]: 30
- Cocklebur plant response rating [6, 15]: 100
- Cocklebur plant response rating [6, 16]: 100
- Plant response rating, Cocklebur [6, 17]: 60
- Plant response rating, Cocklebur [6, 18]: 90
- Surinam Grass plant response rating [7, 15]: 80
- Surinam Grass plant response rating [7, 16]: 80
- Plant response rating, Surinam Grass [7, 17]: 20
- Plant response rating, Surinam Grass [7, 18]: 50
- Pigweed plant response rating [8, 15]: 100
- Pigweed plant response rating [8, 16]: 100
- Crabgrass plant response rating [9, 15]: 70
- Crabgrass plant response rating [9, 16]: 80
- Plant response rating, Crabgrass [9, 17]: 50
- Plant response rating, Crabgrass [9, 18]: 70
- Velvetleaf plant response rating [10, 15]: 90
- Velvetleaf plant response rating [10, 16]: 100
- Plant response rating, Velvetleaf [10, 17]: 70
- Plant response rating, Velvetleaf [10, 18]: 90
- Barnyardgrass plant response rating [11, 15]: 90
- Barnyardgrass plant response rating [11, 16]: 90
- Morningglory plant response rating [12, 15]: 60
- Morningglory plant response rating [12, 16]: 90
- Plant response rating, Morningglory [12, 17]: 0
- Plant response rating, Morningglory [12, 18]: 10
- Wheat plant response rating [13, 15]: 50
- Wheat plant response rating [13, 16]: 60
- Plant response rating, Wheat [13, 17]: 50
- Plant response rating, Wheat [13, 18]: 70
- Lambsquarters plant response rating [14, 15]: 100
- Lambsquarters plant response rating [14, 16]: 100

SMILES: COC(=O)Cc1nc(C2CC2)nc(N)c1Br [Compound 13]
- Plant response rating, Rice (rice (Oryza sativa); 1000 g ai/ha): 0
- Plant response rating, Sedge, Umbrella ([1]; 1000 g ai/ha): 0
- Plant response rating, Barnyardgrass ([2]; 1000 g ai/ha, scale 0 (no effect) to 100 (complete control)): 0
- Plant response rating, Ducksalad ([3]; 1000 g ai/ha): 0
- Blackgrass plant response rating ([4]; 125 g ai/ha): 10
- Plant response rating, Blackgrass ([4]; 500 g ai/ha, scale 0 to 100): 20
- Oat, Wild plant response rating (wild oat (Avena fatua); 125 g ai/ha): 0
- Plant response rating, Oat, Wild (wild oat (Avena fatua); 500 g ai/ha, scale 0 to 100): 0
- Corn plant response rating (corn (Zea mays); [16]): 0
- Plant response rating, Corn (corn (Zea mays); [19]): 0
- Corn plant response rating (corn (Zea mays); [20]): 30
- Foxtail, Giant plant response rating [5, 16]: 10
- Plant response rating, Foxtail, Giant [5, 19]: 20
- Plant response rating, Foxtail, Giant [5, 18]: 20
- Foxtail, Giant plant response rating [5, 20]: 40
- Cocklebur plant response rating [6, 16]: 10
- Plant response rating, Cocklebur [6, 19]: 40
- Plant response rating, Cocklebur [6, 18]: 90
- Cocklebur plant response rating [6, 20]: 100
- Surinam Grass plant response rating [7, 16]: 0
- Plant response rating, Surinam Grass [7, 19]: 0
- Plant response rating, Surinam Grass [7, 18]: 0
- Pigweed plant response rating [8, 16]: 50
- Plant response rating, Pigweed [8, 19]: 70
- Plant response rating, Pigweed [8, 18]: 80
- Pigweed plant response rating [8, 20]: 90
- Crabgrass plant response rating [9, 16]: 20
- Plant response rating, Crabgrass [9, 19]: 30
- Plant response rating, Crabgrass [9, 18]: 50
- Crabgrass plant response rating [9, 20]: 70
- Velvetleaf plant response rating [10, 16]: 40
- Plant response rating, Velvetleaf [10, 19]: 50
- Plant response rating, Velvetleaf [10, 18]: 80
- Velvetleaf plant response rating [10, 20]: 90
- Barnyardgrass plant response rating [11, 16]: 0
- Plant response rating, Barnyardgrass [11, 19]: 10
- Plant response rating, Barnyardgrass [11, 18]: 40
- Barnyardgrass plant response rating [11, 20]: 80
- Morningglory plant response rating [12, 16]: 50
- Plant response rating, Morningglory [12, 19]: 70
- Plant response rating, Morningglory [12, 18]: 90
- Morningglory plant response rating [12, 20]: 100
- Wheat plant response rating [13, 16]: 0
- Plant response rating, Wheat [13, 19]: 0
- Plant response rating, Wheat [13, 18]: 40
- Wheat plant response rating [13, 20]: 60
- Lambsquarters plant response rating [14, 16]: 60
- Plant response rating, Lambsquarters [14, 19]: 70
- Plant response rating, Lambsquarters [14, 18]: 90
- Lambsquarters plant response rating [14, 20]: 100
